Measured values published in the NIST ThermoML archive (doi:10.1021/je060139a).

Columns and labels:
[1] = xn = mol fraction of the nth substance listed; settings: Wilhelmy plate method
[2] = refractive index (Na D-line) (dimensionless); xn = mol fraction of the nth substance listed; settings: 100.5 kPa, Liquid, Standard Abbe refractometry

CCOC(=O)CC(C)C [ethyl 3-methylbutanoate] + CCO
Settings | refractive index, [2] | surface tension liquid-gas, [1] [mN/m]
288.15 K, x1 = 0.05 | 1.3677 | 23.14
288.15 K, x1 = 0.1 | 1.37142 | 23.26
288.15 K, x1 = 0.15 | 1.37464 | 23.37
288.15 K, x1 = 0.2 | 1.37745 | 23.46
288.15 K, x1 = 0.25 | 1.37993 | 23.55
288.15 K, x1 = 0.3 | 1.38213 | 23.62
288.15 K, x1 = 0.35 | 1.3841 | 23.69
288.15 K, x1 = 0.4 | 1.38587 | 23.76
288.15 K, x1 = 0.45 | 1.38748 | 23.82
288.15 K, x1 = 0.5 | 1.38894 | 23.88
288.15 K, x1 = 0.55 | 1.39028 | 23.93
288.15 K, x1 = 0.6 | 1.39151 | 23.99
288.15 K, x1 = 0.65 | 1.39264 | 24.04
288.15 K, x1 = 0.7 | 1.39369 | 24.09
288.15 K, x1 = 0.75 | 1.39467 | 24.15
288.15 K, x1 = 0.8 | 1.39559 | 24.2
288.15 K, x1 = 0.85 | 1.39646 | 24.25
288.15 K, x1 = 0.9 | 1.39729 | 24.3
288.15 K, x1 = 0.95 | 1.39807 | 24.35
288.15 K, x1 = 1 | 1.3988 | 24.4
298.18 K, x1 = 0.05 | 1.36363 | 22.4
298.18 K, x1 = 0.1 | 1.36724 | 22.5
298.18 K, x1 = 0.15 | 1.37038 | 22.58
298.18 K, x1 = 0.2 | 1.37312 | 22.66
298.18 K, x1 = 0.25 | 1.37554 | 22.73
298.18 K, x1 = 0.3 | 1.37769 | 22.79
298.18 K, x1 = 0.35 | 1.37961 | 22.85
298.18 K, x1 = 0.4 | 1.38134 | 22.91
298.18 K, x1 = 0.45 | 1.38291 | 22.96
298.18 K, x1 = 0.5 | 1.38434 | 23
298.18 K, x1 = 0.55 | 1.38564 | 23.05
298.18 K, x1 = 0.6 | 1.38684 | 23.1
298.18 K, x1 = 0.65 | 1.38795 | 23.15
298.18 K, x1 = 0.7 | 1.38897 | 23.2
298.18 K, x1 = 0.75 | 1.38993 | 23.26
298.18 K, x1 = 0.8 | 1.39083 | 23.31
298.18 K, x1 = 0.85 | 1.39169 | 23.35
298.18 K, x1 = 0.9 | 1.3925 | 23.4
298.18 K, x1 = 0.95 | 1.39328 | 23.45
298.18 K, x1 = 1 | 1.39401 | 23.5
308.15 K, x1 = 0.05 | 1.35942 | 21.57
308.15 K, x1 = 0.1 | 1.36295 | 21.64
308.15 K, x1 = 0.15 | 1.36603 | 21.7
308.15 K, x1 = 0.2 | 1.36872 | 21.76
308.15 K, x1 = 0.25 | 1.3711 | 21.81
308.15 K, x1 = 0.3 | 1.37321 | 21.86
308.15 K, x1 = 0.35 | 1.3751 | 21.91
308.15 K, x1 = 0.4 | 1.3768 | 21.96
308.15 K, x1 = 0.45 | 1.37834 | 22
308.15 K, x1 = 0.5 | 1.37974 | –
308.15 K, x1 = 0.55 | 1.38102 | 22.04
308.15 K, x1 = 0.6 | 1.3822 | 22.08
308.15 K, x1 = 0.65 | 1.38329 | 22.13
308.15 K, x1 = 0.7 | 1.3843 | 22.17
308.15 K, x1 = 0.75 | 1.38524 | 22.22
308.15 K, x1 = 0.8 | 1.38613 | 22.27
308.15 K, x1 = 0.85 | 1.38698 | 22.31
308.15 K, x1 = 0.9 | 1.38779 | 22.36
308.15 K, x1 = 0.95 | 1.38857 | 22.41
308.15 K, x1 = 1 | 1.38931 | 22.45
318.15 K, x1 = 0.05 | 1.35545 | 20.65
318.15 K, x1 = 0.1 | 1.35888 | 20.72
318.15 K, x1 = 0.15 | 1.36186 | 20.78
318.15 K, x1 = 0.2 | 1.36447 | 20.83
318.15 K, x1 = 0.25 | 1.36679 | 20.88
318.15 K, x1 = 0.3 | 1.36884 | 20.94
318.15 K, x1 = 0.35 | 1.37068 | 20.99
318.15 K, x1 = 0.4 | 1.37233 | 21.03
318.15 K, x1 = 0.45 | 1.37383 | 21.08
318.15 K, x1 = 0.5 | 1.37519 | 21.12
318.15 K, x1 = 0.55 | 1.37644 | 21.17
318.15 K, x1 = 0.6 | 1.37759 | 21.21
318.15 K, x1 = 0.65 | 1.37865 | 21.26
318.15 K, x1 = 0.7 | 1.37964 | 21.3
318.15 K, x1 = 0.75 | 1.38056 | 21.35
318.15 K, x1 = 0.8 | 1.38143 | 21.4
318.15 K, x1 = 0.85 | 1.38226 | 21.45
318.15 K, x1 = 0.9 | 1.38306 | 21.5
318.15 K, x1 = 0.95 | 1.38384 | 21.55
318.15 K, x1 = 1 | 1.38458 | 21.6

CCC(=O)OCc1ccccc1 [benzyl propanoate] + CCO
Settings | refractive index, 288.15 K | refractive index, 298.18 K | refractive index, 308.15 K | refractive index, 318.15 K | surface tension liquid-gas, 288.15 K [mN/m] | surface tension liquid-gas, 298.18 K [mN/m] | surface tension liquid-gas, 308.15 K [mN/m] | surface tension liquid-gas, 318.15 K [mN/m]
[1], x1 = 0.05 | – | – | – | – | 24 | 23.2 | 22.3 | 21.34
[1], x1 = 0.1 | – | – | – | – | 24.8 | 24 | 23.1 | 22.1
[1], x1 = 0.15 | – | – | – | – | 25.5 | 24.64 | 23.7 | 22.7
[1], x1 = 0.2 | – | – | – | – | 26.13 | 25.25 | 24.3 | 23.3
[1], x1 = 0.25 | – | – | – | – | 26.7 | 25.78 | 24.82 | 23.8
[1], x1 = 0.3 | – | – | – | – | 27.23 | 26.3 | 25.32 | 24.3
[1], x1 = 0.35 | – | – | – | – | 27.76 | 26.8 | 25.8 | 24.78
[1], x1 = 0.4 | – | – | – | – | 28.3 | 27.31 | 26.3 | 25.28
[1], x1 = 0.45 | – | – | – | – | 28.85 | 27.84 | 26.82 | 25.78
[1], x1 = 0.5 | – | – | – | – | 29.4 | 28.36 | 27.33 | 26.28
[1], x1 = 0.55 | – | – | – | – | 29.95 | 28.89 | 27.85 | 26.78
[1], x1 = 0.6 | – | – | – | – | 30.5 | 29.43 | 28.37 | 27.28
[1], x1 = 0.65 | – | – | – | – | 31.06 | 29.97 | 28.88 | 27.78
[1], x1 = 0.7 | – | – | – | – | 31.62 | 30.52 | 29.4 | 28.3
[1], x1 = 0.75 | – | – | – | – | 32.23 | 31.1 | 29.96 | 28.83
[1], x1 = 0.8 | – | – | – | – | 32.88 | 31.7 | 30.55 | 29.4
[1], x1 = 0.85 | – | – | – | – | 33.7 | 32.5 | 31.3 | 30.1
[1], x1 = 0.9 | – | – | – | – | 34.5 | 33.3 | 32.1 | 30.9
[1], x1 = 0.95 | – | – | – | – | 35.2 | 34 | 32.8 | 31.6
[1], x1 = 1 | – | – | – | – | 36 | 34.8 | 33.6 | 32.4
[2], x1 = 0.05 | 1.38108 | 1.37691 | 1.37266 | 1.36853 | – | – | – | –
[2], x1 = 0.1 | 1.39613 | 1.39185 | 1.38756 | 1.38322 | – | – | – | –
[2], x1 = 0.15 | 1.40891 | 1.40454 | 1.4002 | 1.39583 | – | – | – | –
[2], x1 = 0.2 | 1.42001 | 1.41559 | 1.41123 | 1.40687 | – | – | – | –
[2], x1 = 0.25 | 1.42966 | 1.42524 | 1.42091 | 1.41651 | – | – | – | –
[2], x1 = 0.3 | 1.43817 | 1.43375 | 1.42944 | 1.425 | – | – | – | –
[2], x1 = 0.35 | 1.44572 | 1.44128 | 1.43696 | 1.4325 | – | – | – | –
[2], x1 = 0.4 | 1.45248 | 1.44801 | 1.4437 | 1.43922 | – | – | – | –
[2], x1 = 0.45 | 1.45858 | 1.45408 | 1.44977 | 1.44524 | – | – | – | –
[2], x1 = 0.5 | 1.46414 | 1.45962 | 1.4553 | 1.45072 | – | – | – | –
[2], x1 = 0.55 | 1.46918 | 1.46464 | 1.46031 | 1.45569 | – | – | – | –
[2], x1 = 0.6 | 1.47384 | 1.46929 | 1.46494 | 1.46029 | – | – | – | –
[2], x1 = 0.65 | 1.47807 | 1.47352 | 1.46917 | 1.46451 | – | – | – | –
[2], x1 = 0.7 | 1.48193 | 1.47737 | 1.47302 | 1.46833 | – | – | – | –
[2], x1 = 0.75 | 1.48549 | 1.48092 | 1.47658 | 1.47188 | – | – | – | –
[2], x1 = 0.8 | 1.48877 | 1.48419 | 1.47986 | 1.47516 | – | – | – | –
[2], x1 = 0.85 | 1.49183 | 1.48725 | 1.48292 | 1.47824 | – | – | – | –
[2], x1 = 0.9 | 1.49464 | 1.49006 | 1.48574 | 1.48106 | – | – | – | –
[2], x1 = 0.95 | 1.49721 | 1.49265 | 1.48834 | 1.48366 | – | – | – | –
[2], x1 = 1 | 1.4995 | 1.49498 | 1.49074 | 1.48611 | – | – | – | –
